Experimental data reported in patent US20230059463A1, “3-(2-BROMO-4-ALKYNYL-6-ALKOXYPHENYL)-SUBSTITUTED 5-SPIROCYCLOHEXYL-3-PYRROLIN-2-ONES AND THEIR USE AS HERBICIDES” (Bayer Aktiengesellschaft, priority 2019, published 2023).

Legend:
Assay type in all cases: in vivo
[1] = tested on: Lolium rigidum; experiment: Post-emergence herbicidal effect; conditions: 80 g/ha, post-emergence at one-leaf stage, assessed visually after about 3 weeks; 100% = plants have died, 0% = like control plants
Method: (§1) Seeds of monocotyledonous and dicotyledonous weed and crop plants are laid out in sandy loam soil in wood-fiber pots, covered with soil and cultivated in a greenhouse under good growth conditions. 2 to 3 weeks after sowing, the test plants are treated at the one-leaf stage. The compounds of the invention, formulated in the form of wettable powders (WP) or as emulsion concentrates (EC), are then sprayed onto the green parts of the plants as aqueous suspension or emulsion at a water application rate equating to 600 to 800 l/ha with addition of 0.2% wetting agent. After the test plants have been left to stand in the greenhouse under optimal growth conditions for about 3 weeks, the action of the preparations is assessed visually in comparison to untreated controls (herbicidal action in per cent (%): 100% activity=the plants have died, 0% activity=like control plants).

[2] = tested on: Echinochloa crus-galli; experiment: Post-emergence herbicidal effect; conditions: 80 g/ha, post-emergence at one-leaf stage, assessed visually after about 3 weeks; 100% = plants have died, 0% = like control plants
Method: as §1

[3] = tested on: Alopecurus myosuroides; experiment: Post-emergence herbicidal effect; conditions: 80 g/ha, post-emergence at one-leaf stage, assessed visually after about 3 weeks; 100% = plants have died, 0% = like control plants
Method: as §1

[4] = tested on: Setaria viridis; experiment: Post-emergence herbicidal effect; conditions: 80 g/ha, post-emergence at one-leaf stage, assessed visually after about 3 weeks; 100% = plants have died, 0% = like control plants
Method: as §1

[5] = tested on: Hordeum murinum; experiment: Post-emergence herbicidal effect; conditions: 80 g/ha, post-emergence at one-leaf stage, assessed visually after about 3 weeks; 100% = plants have died, 0% = like control plants
Method: as §1

[6] = tested on: Digitaria sanguinalis; experiment: Post-emergence herbicidal effect; conditions: 80 g/ha, post-emergence at one-leaf stage, assessed visually after about 3 weeks; 100% = plants have died, 0% = like control plants
Method: as §1

[7] = tested on: Lolium rigidum; experiment: Pre-emergence herbicidal effect; conditions: 80 g/ha, scored visually after 3 weeks, 100% = plants have died, 0% = like control plants
Description: (§2) Seeds of monocotyledonous and dicotyledonous weed plants and crop plants are laid out in sandy loam soil in wood-fiber pots and covered with soil. The compounds of the invention, formulated in the form of wettable powders (WP) or as emulsion concentrates (EC), are then applied to the surface of the covering soil as aqueous suspension or emulsion at a water application rate equating to 600 to 800 L/ha with addition of 0.2% wetting agent.
(§3) After the treatment, the pots are placed in a greenhouse and kept under good growth conditions for the trial plants. The damage to the test plants is scored visually after a test period of 3 weeks by comparison with untreated controls (herbicidal activity in percent (%): 100% activity=the plants have died, 0% activity=like control plants).

[8] = tested on: Echinochloa crus-galli; experiment: Pre-emergence herbicidal effect; conditions: 80 g/ha, scored visually after 3 weeks, 100% = plants have died, 0% = like control plants
Description: as §2, §3

[9] = tested on: Avena fatua; experiment: Pre-emergence herbicidal effect; conditions: 80 g/ha, scored visually after 3 weeks, 100% = plants have died, 0% = like control plants
Description: as §2, §3

[10] = tested on: Alopecurus myosuroides; experiment: Pre-emergence herbicidal effect; conditions: 80 g/ha, scored visually after 3 weeks, 100% = plants have died, 0% = like control plants
Description: as §2, §3

[11] = tested on: Setaria viridis; experiment: Pre-emergence herbicidal effect; conditions: 80 g/ha, scored visually after 3 weeks, 100% = plants have died, 0% = like control plants
Description: as §2, §3

[12] = tested on: Hordeum murinum; experiment: Pre-emergence herbicidal effect; conditions: 80 g/ha, scored visually after 3 weeks, 100% = plants have died, 0% = like control plants
Description: as §2, §3

SMILES	Post-emergence action against LOLRI (herbicidal action in per cent) [1]	Post-emergence action against ECHCG (herbicidal action in per cent) [2]	Post-emergence action against ALOMY (herbicidal action in per cent) [3]	Post-emergence action against SETVI (herbicidal action in per cent) [4]	Post-emergence action against HORMU (herbicidal action in per cent) [5]	Post-emergence action against DIGSA (herbicidal action in per cent) [6]	Pre-emergence action against LOLRI (herbicidal activity in percent) [7]	Pre-emergence action against ECHCG (herbicidal activity in percent) [8]	Pre-emergence action against AVEFA (herbicidal activity in percent) [9]	Pre-emergence action against ALOMY (herbicidal activity in percent) [10]	Pre-emergence action against SETVI (herbicidal activity in percent) [11]	Pre-emergence action against HORMU (herbicidal activity in percent) [12]
C#Cc1cc(Br)c(C2=C(O)C3(CCCC(OCCC)C3)NC2=O)c(OC)c1 (stereo not shown) [Example 1.1.01]	90%	100%	90%	100%	80%	90%	100%	100%	100%	90%	100%	90%
C#Cc1cc(Br)c(C2=C([O-])C3(CCCC(OCCC)C3)NC2=O)c(OC)c1.[Na+] (stereo not shown) [Example 1.1.02]	100%	100%	100%	100%	100%	100%	100%	100%	100%	100%	100%	100%
C#Cc1cc(Br)c(C2=C([O-])C3(CCCC(OCCOC)C3)NC2=O)c(OC)c1.[Na+] (stereo not shown) [Example 1.1.06]	100%	100%	100%	90%	90%	100%	100%	100%	100%	100%	100%	100%
CC#Cc1cc(Br)c(C2=C(OC(=O)OCC)C3(CCCC(OCCOC)C3)NC2=O)c(OC)c1 (stereo not shown) [Example 1.1.15]	100%	100%	100%	100%	100%		100%	100%	100%	100%	100%	100%
CC#Cc1cc(Br)c(C2=C(OC(=O)C(C)C)C3(CCCC(OCCOC)C3)NC2=O)c(OC)c1 (stereo not shown) [Example 1.1.16]	100%	100%	100%	100%	100%		100%	100%	100%	100%	100%	100%
CC#Cc1cc(Br)c(C2=C(O)C3(CCCC(OCCOC)C3)NC2=O)c(OCC)c1 (stereo not shown) [Example 1.1.17]	100%	100%	100%	100%	100%	100%						
CC#Cc1cc(Br)c(C2=C([O-])C3(CCCC(OCCOC)C3)NC2=O)c(OCC)c1.[Na+] (stereo not shown) [Example 1.1.18]	100%	100%	100%	100%	100%	100%						
CC#Cc1cc(Br)c(C2=C(OC(=O)OCC)C3(CCCC(OCCOC)C3)NC2=O)c(OCC)c1 (stereo not shown) [Example 1.1.19]	100%	100%	100%	100%	100%	100%						
